From ChEMBL document CHEMBL4622844, “Inhibition of bacterial growth and galactosyltransferase activity of WbwC by α, ω-bis(3-alkyl-1H-imidazolium)alkane salts: Effect of varying carbon content” (Bioorg Med Chem, 2020) come the findings set out here.

The structures appear in SMILES notation. Calls of active or inactive are those of the source. The calls are words filed in the database; no cut-off is given here.

In experiment [1] the test system is Escherichia coli. Briefly: Inhibition of recombinant Escherichia coli O104:H4 Beta-1,3-galactosyltransferase WbwC expressed in Escherichia coli BL21 at 0.5 mM in presence of UDP-[3H]Gal and GalNAC-PO3-PO3-(CH2)11-O-phenyl after 1 hr by scintillation counting method relative to control.
Experiment [2] can be described thus: Inhibition of recombinant Escherichia coli O104:H4 Beta-1,3-galactosyltransferase WbwC expressed in Escherichia coli BL21 in presence of UDP-[3H]Gal and GalNAC-PO3-PO3-(CH2)11-O-phenyl after 1 hr by scintillation counting method.
Experiment [3] has as its target T1, Beta-1,4-galactosyltransferase 1 (Bos taurus) (UniProt P08037).
T1 sequence (whole entry): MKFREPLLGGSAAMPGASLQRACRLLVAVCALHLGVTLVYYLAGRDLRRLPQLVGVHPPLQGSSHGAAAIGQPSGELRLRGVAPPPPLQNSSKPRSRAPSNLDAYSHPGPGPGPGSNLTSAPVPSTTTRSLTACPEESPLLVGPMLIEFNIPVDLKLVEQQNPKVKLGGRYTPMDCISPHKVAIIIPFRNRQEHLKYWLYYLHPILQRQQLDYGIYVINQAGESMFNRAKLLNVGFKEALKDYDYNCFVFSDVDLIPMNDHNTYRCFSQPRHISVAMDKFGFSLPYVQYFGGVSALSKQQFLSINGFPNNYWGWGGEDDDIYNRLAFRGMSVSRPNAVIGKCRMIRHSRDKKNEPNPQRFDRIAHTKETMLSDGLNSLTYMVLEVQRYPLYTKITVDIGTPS
Briefly: Inhibition of bovine milk Beta-1,4-galactosyltransferase at 0.5 mM in presence of UDP-[3H]Gal and GlcNAc-beta-Bn after 1 hr by scintillation counting method.

The subject of experiment [4] is Pseudomonas aeruginosa. The experiment in a line: Antimicrobial activity against Pseudomonas aeruginosa PAO1 assessed as inhibition of colony formation at 25 uM preincubated for 4 hrs and measured after overnight incubation by CFU assay. Type of experiment: functional.
Experiment [5] concerns Pseudomonas aeruginosa. Briefly: Antimicrobial activity against Pseudomonas aeruginosa PAO1 assessed as inhibition of colony formation at 50 uM preincubated for 4 hrs and measured after overnight incubation by CFU assay. The format is functional.

A word on the inhibition: it is the drop in the measured response relative to a control, in per cent. On to `CCCCCCCCC[n+]1ccn(CCCCCCn2cc[n+](CCCCCCCCC)c2)c1`, for which, in experiment [1], the inhibition was < 10%. For `C[n+]1ccn(CCCCCCCCCCCCCCCCn2cc[n+](C)c2)c1`, in experiment [1], the inhibition is < 1%. The same measure, in the same setting: the result for `CCCCCCC[n+]1ccn(CCCCCCn2cc[n+](CCCCCCC)c2)c1` reads 16%.

One may read the IC50 as the point on the concentration scale where inhibition reaches its midpoint. As to `CCCCCCCCC[n+]1ccn(CCCCCCCCCCn2cc[n+](CCCCCCCCC)c2)c1`, the inhibition in experiment [1] is 95%. Further, the IC50 in experiment [2] was determined as 23 µM. Further, the inhibition result in experiment [3] was “Active”. For `CCCCCCCCCCCC[n+]1ccn(CCCCCCCCCCCCCCCCn2cc[n+](CCCCCCCCCCCC)c2)c1`, in experiment [1], the inhibition was 92%. For the same compound, the IC50 in experiment [2] was determined as 121 µM. Besides, in experiment [3], the inhibition result was “Active”.

As for `CCCCCC[n+]1ccn(CCCCCCn2cc[n+](CCCCCC)c2)c1`, in experiment [1], the inhibition stood at 6%. Turning to `CCCCCCCCCC[n+]1ccn(CCCCCCCCCCCCCCCCn2cc[n+](CCCCCCCCCC)c2)c1`, the inhibition in experiment [1] was found to be 92%. For the same compound, the IC50 in experiment [2] is 147 µM. On the same counts, the results for `CCCCCCCCCCC[n+]1ccn(CCCCCCn2cc[n+](CCCCCCCCCCC)c2)c1` are 99% and 117 µM. For `C[n+]1ccn(CCCCCCCCCCCCCCCn2cc[n+](C)c2)c1`, in experiment [1], the inhibition came out at 11%. For `C[n+]1ccn(CCCCCCCCCCCCCCCCCCCCCCn2cc[n+](C)c2)c1`, the inhibition in experiment [1] is 91%. The IC50 in experiment [2] worked out at 159 µM. For the same compound, in experiment [4], the inhibition at 25 µM was > 95%. Also, the inhibition at 50 µM in experiment [5] amounted to 100%. As for `CCCCCCCCC[n+]1ccn(CCCCCCCCCCCCCCCCn2cc[n+](CCCCCCCCC)c2)c1`, the inhibition in experiment [1] amounted to 93%. The IC50 in experiment [2] turned out to be 35 µM. For `CCCCCCCCCCCC[n+]1ccn(CCCCCCn2cc[n+](CCCCCCCCCCCC)c2)c1`, the inhibition in experiment [1] came out at 90%. Moreover, in experiment [2], the IC50 was 43 µM. For the same compound, in experiment [3], the inhibition entry is “Active”. As for `CCCCCCCCCCC[n+]1ccn(CCCCCCCCCCn2cc[n+](CCCCCCCCCCC)c2)c1`, the inhibition in experiment [1] was found to be 98%. Further, the IC50 in experiment [2] stood at 62 µM.

`CCCCCCCCCC[n+]1ccn(CCCCCCCCCCn2cc[n+](CCCCCCCCCC)c2)c1`: the inhibition in experiment [1] came to 98%. In addition, the IC50 in experiment [2] is 152 µM. With `CCCCCCCCCC[n+]1ccn(CCCCCCn2cc[n+](CCCCCCCCCC)c2)c1`, in experiment [1], the inhibition was 92%. The IC50 in experiment [2] amounted to 263 µM. Moreover, the inhibition entry in experiment [3] was “Active”. As to `CCCCCC[n+]1ccn(CCCCCCCCCCn2cc[n+](CCCCCC)c2)c1`, in experiment [1], the inhibition was < 1%. `CCCCCCC[n+]1ccn(CCCCCCCCCCCCCCCCn2cc[n+](CCCCCCC)c2)c1`: the inhibition in experiment [1] worked out at 95%. Besides, the IC50 in experiment [2] was determined as 11 µM. On to `C[n+]1ccn(CCCCn2cc[n+](C)c2)c1`, for which the inhibition in experiment [1] was 9%. For the same compound, the inhibition at 50 µM in experiment [5] stood at 0%. Turning to `CCCCCCCC[n+]1ccn(CCCCCCCCCCCCCCCCn2cc[n+](CCCCCCCC)c2)c1`, the inhibition in experiment [1] came out at 93%. In addition, the IC50 in experiment [2] was determined as 18 µM. With `CCCCCCC[n+]1ccn(CCCCCCCCCCn2cc[n+](CCCCCCC)c2)c1`, the inhibition in experiment [1] is < 1%. In the case of `C[n+]1ccn(CCCCCCCCn2cc[n+](C)c2)c1`, the inhibition in experiment [1] turned out to be 21%. `C[n+]1ccn(CCCCCCn2cc[n+](C)c2)c1`: the inhibition in experiment [1] came out at 7%. Further, in experiment [5], the inhibition at 50 µM is 0%. `CCCCCCCC[n+]1ccn(CCCCCCn2cc[n+](CCCCCCCC)c2)c1`: in experiment [1], the inhibition was 13%. With `CCCCCC[n+]1ccn(CCCCCCCCCCCCCCCCn2cc[n+](CCCCCC)c2)c1`, the inhibition in experiment [1] stood at 88%. Moreover, the IC50 in experiment [2] was 48 µM. In experiment [3], the inhibition entry was “Active”.
